Experimental data reported in patent US8501750B2, “Heterocyclic compound and use thereof” (Takeda Pharmaceutical Company Limited, priority 2007, dated 2013).

Assays:
[1] = target: AT1 receptor (Homo sapiens (Human), UniProt P30556); test: AT1 receptor binding inhibitory action
[2] = target: PPARγ (Homo sapiens (Human), UniProt P37231); test: PPARγ activating action (luciferase reporter in PPARγ:RXRα:4ERPP/CHO-K1 cells); format: cell-based; details: CHO-K1, 24 h; test compound 1 μM; luciferase activity relative to control compound X (1 μM) = 100%, non-administration group = 0%; read-out: PPARγ activating action (activation % (1 μM))
PPARγ, sequence (P37231 29-505): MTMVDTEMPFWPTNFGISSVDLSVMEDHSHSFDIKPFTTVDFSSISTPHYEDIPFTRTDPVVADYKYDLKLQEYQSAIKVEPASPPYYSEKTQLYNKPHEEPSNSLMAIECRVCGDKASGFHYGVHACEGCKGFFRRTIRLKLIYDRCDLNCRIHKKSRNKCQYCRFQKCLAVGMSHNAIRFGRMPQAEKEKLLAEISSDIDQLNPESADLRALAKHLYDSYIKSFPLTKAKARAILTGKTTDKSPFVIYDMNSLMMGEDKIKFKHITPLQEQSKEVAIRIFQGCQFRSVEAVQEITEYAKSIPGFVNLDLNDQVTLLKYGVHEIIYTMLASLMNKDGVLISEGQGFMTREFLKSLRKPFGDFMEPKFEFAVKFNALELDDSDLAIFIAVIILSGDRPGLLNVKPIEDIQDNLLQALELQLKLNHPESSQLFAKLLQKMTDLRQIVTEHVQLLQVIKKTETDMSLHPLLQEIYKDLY
PPARγ, sequence (P19793 whole entry partner): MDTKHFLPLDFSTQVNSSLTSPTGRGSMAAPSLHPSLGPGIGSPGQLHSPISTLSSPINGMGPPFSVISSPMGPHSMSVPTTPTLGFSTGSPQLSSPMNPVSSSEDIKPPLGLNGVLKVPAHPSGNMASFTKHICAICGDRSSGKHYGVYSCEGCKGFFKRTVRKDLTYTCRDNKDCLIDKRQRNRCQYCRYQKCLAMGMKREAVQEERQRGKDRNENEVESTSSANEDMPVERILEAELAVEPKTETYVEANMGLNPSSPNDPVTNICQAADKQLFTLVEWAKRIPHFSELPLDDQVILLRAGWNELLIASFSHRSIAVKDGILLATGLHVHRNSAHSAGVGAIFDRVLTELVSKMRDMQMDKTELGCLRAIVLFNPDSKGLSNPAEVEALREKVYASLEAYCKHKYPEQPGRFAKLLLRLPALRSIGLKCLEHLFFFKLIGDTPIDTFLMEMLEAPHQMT
Procedure, shortened: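 Stably transfected CHO-K1 cells carrying PPARγ:RXRα and a 4ERPP luciferase reporter, selected with Geneticin and Zeocin, were exposed to compound for 1 day at 37 °C. The medium was Ham's F12 with 0.1% fatty acid-free BSA. Luciferase activity was then measured as the read-out.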

AT1 receptor, sequence (P30556 whole entry): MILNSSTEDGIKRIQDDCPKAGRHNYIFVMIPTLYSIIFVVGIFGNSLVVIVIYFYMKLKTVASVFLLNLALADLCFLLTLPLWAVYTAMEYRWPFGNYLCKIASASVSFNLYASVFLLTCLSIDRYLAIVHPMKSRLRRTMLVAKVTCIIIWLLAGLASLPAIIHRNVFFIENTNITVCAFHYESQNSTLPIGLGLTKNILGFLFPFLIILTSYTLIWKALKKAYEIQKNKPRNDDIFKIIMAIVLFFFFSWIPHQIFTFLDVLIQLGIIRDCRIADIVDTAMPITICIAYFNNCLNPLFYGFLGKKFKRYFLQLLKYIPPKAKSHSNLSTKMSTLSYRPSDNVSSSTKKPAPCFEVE

IC50 [1] | activation at 1 µM [2] | Compound
2 nM | 49% | CCc1cc2c(=O)n(CC(=NOC(C)C)c3ccc(OC)cc3)c(=O)n(Cc3ccc(-c4ccccc4-c4noc(=O)[nH]4)cc3)c2s1 [Ex. 213, 6-ethyl-3-[2-(isopropoxyimino)-2-(4-methoxyphenyl)ethyl]-1-{[2′-(5-oxo-4,5-dihydro-1,2,4-oxadiazol-3-yl)biphenyl-4-yl]methyl}thieno[2,3-d]pyrimidine-2,4(1H,3H)-dione]
1.8 nM | 41% | C=CCON=C(Cn1c(=O)c2cc(CC)sc2n(Cc2ccc(-c3ccccc3-c3noc(=O)[nH]3)cc2)c1=O)c1ccc(OC)cc1 [Ex. 214, 3-[2-[(allyloxy)imino]-2-(4-methoxyphenyl)ethyl]-6-ethyl-1-{[2′-(5-oxo-4,5-dihydro-1,2,4-oxadiazol-3-yl)biphenyl-4-yl]methyl}thieno[2,3-d]pyrimidine-2,4(1H,3H)-dione]
1.3 nM | 27% | CCc1cc2c(=O)n(CC(=NOC)c3ccccc3)c(=O)n(Cc3ccc(-c4ccccc4-c4noc(=O)[nH]4)cc3)c2s1 [Ex. 215, 6-ethyl-3-[2-(methoxyimino)-2-phenylethyl]-1-{[2′-(5-oxo-4,5-dihydro-1,2,4-oxadiazol-3-yl)biphenyl-4-yl]methyl}thieno[2,3-d]pyrimidine-2,4(1H,3H)-dione]
1.4 nM | 47% | CCc1cc2c(=O)n(CC(=O)c3cccs3)c(=O)n(Cc3ccc(-c4ccccc4-c4noc(=O)[nH]4)cc3)c2s1 [Ex. 221, 6-ethyl-1-{[2′-(5-oxo-4,5-dihydro-1,2,4-oxadiazol-3-yl)biphenyl-4-yl]methyl}-3-[2-oxo-2-(2-thienyl)ethyl]thieno[2,3-d]pyrimidine-2,4(1H,3H)-dione]
1.9 nM | 32% | CCc1cc2c(=O)n(CC(=O)c3sccc3Br)c(=O)n(Cc3ccc(-c4ccccc4-c4noc(=O)[nH]4)cc3)c2s1 [Ex. 222, 3-[2-(3-bromo-2-thienyl)-2-oxoethyl]-6-ethyl-1-{[2′-(5-oxo-4,5-dihydro-1,2,4-oxadiazol-3-yl)biphenyl-4-yl]methyl}thieno[2,3-d]pyrimidine-2,4(1H,3H)-dione]
1.6 nM | 39% | CCc1cc2c(=O)n(CC(C)(C)c3ccccc3)c(=O)n(Cc3ccc(-c4ccccc4-c4noc(=O)[nH]4)cc3)c2s1 [Ex. 225, 6-ethyl-3-(2-methyl-2-phenylpropyl)-1-{[2′-(5-oxo-4,5-dihydro-1,2,4-oxadiazol-3-yl)biphenyl-4-yl]methyl}thieno[2,3-d]pyrimidine-2,4(1H,3H)-dione]
0.34 nM | 65% | CCc1cc2c(=O)n(CCc3ccc(F)cc3)c(=O)n(Cc3ccc(-c4ccccc4-c4noc(=O)[nH]4)cc3)c2s1 [Example 56, 6-ethyl-3-[2-(4-fluorophenyl)ethyl]-1-{[2′-(5-oxo-4,5-dihydro-1,2,4-oxadiazol-3-yl)biphenyl-4-yl]methyl}thieno[2,3-d]pyrimidine-2,4(1H,3H)-dione]
